For this experiment, the system named is broilers. The experiment can be described thus: Field test in broilers, diurnoside/cestrumoside plus vitamin D3 metabolites (Example 1). Type of experiment: in vivo. The settings on record: in combination with diurnoside or cestrumoside versus control groups with calcitriol or calcifediol alone, FIG. 1.

Excerpt: In a commercial boiler feeding operation, five stalls each with approximate 43,000 animals were compared with regard to the incidence of osteochondrosis/dyschondroplasia in a field test. All the stalls were fed using conventional boiler fattening feed, distributed under the brand name GeflügelmastKorn® (Company: Garant Tiernahrung [Garant Animal Nutrition]), wherein no further additives were used in stall K1 (controls).
For stall K2 (control group calcitriol), a feed additive containing 20 ppm calcitriol in an amount of 150 ppm (based on feed with 88% dry solids) was mixed into the broiler fattening feed.
For stall K2 (control group calcifediol), a feed additive containing 200 ppm calcifediol in an amount of 150 ppm (based on feed with 88% dry solids) was mixed into the broiler fattening feed.
For stall V1 (experimental group with diurnoside plus calcitriol), the feed additive according to the invention, containing 100 ppm diurnoside and 10 ppm calcitriol was mixed into the boiler fattening feed in an amount of 150 ppm (based on feed with 88% dry solids).
For the stall V2 (experimental group with cestrumoside plus calcifediol), the feed additive according to the invention, containing 20 ppm cestrumoside and 100 ppm calcifediol in an amount of 150 ppm (based on feed with 88% dry solids) was mixed into the broiler fattening feed. […]

In the case of `C=C1CC[C@H](O)C/C1=C/C=C1\CCC[C@]2(C)[C@@H]([C@H](C)CCCC(C)(C)O)CC[C@@H]12` [calcifediol], the “effective doses for calcitriol and calcifediol” value is recorded as “reduced by one-half”.

Turning to `C=C1/C(=C\C=C2/CCC[C@]3(C)[C@@H]([C@H](C)CCCC(C)(C)O)CC[C@@H]23)C[C@@H](O)C[C@@H]1O` [calcitriol], the “effective doses for calcitriol and calcifediol” value is on record as “reduced by one-half”.

These data come from patent US10932480B2, “Animal feed additive containing diurnosid and/or cestrumosid” (priority 2016, dated 2021).
